Experimental data reported in patent US20100297156A1, “ANALOGUES OF PHOSPHATIDYLINOSITOL MANNOSIDES” (INDUSTRIAL RESEARCH LIMITED, priority 2006, published 2010).

Tests used:
[1] = tested on: mouse dendritic cells (DC); test: IL-12 induction in in vitro mouse dendritic cell (DC) assay, IL-12 ELISA; assay type: cell-based; details: 50 μg of each compound; supernatants collected 48 hours after stimulation
Protocol: Bone marrow contents of C57BU6 mice were obtained from the femurs, by flushing the inside of the bones with media (see below). Cells were then incubated in complete medium with 0.2 U/mI of recombinant GM-CSF and 200 U/ml of recombinant IL-4 (Both from Serotec, Oxford, UK), replenished daily. After 3-4 days, fresh media and cytokines were added to cells. Cells were harvested after 7-10 days of culture, washed three times and adjusted to desired cell numbers. When harvested, cells were more than 95% DCs based on the following: DCs lacked B and T cells markers had high expression of MHC class 2 and class 1 (Serotec), and had low expression of CD11a (Serotec) and CD14 (Serotec), and expressed CD11c (Serotec). […]
(§1) Plates (Maxisorp, Nunc, Denmark) were coated with 8 μg/ml anti-IL-12 (B @ D Pharmaceuticals) and incubated overnight at room temperature. […] Following the final washing step, TMB substrate was added, the reaction was stopped by the addition of H2SO4, and the absorbance values were read at 450 nm.
IL-10 and IL-12 inducing activities of compounds 1.9, 2.5, 3.5, 4,6, 5.3, 6.2, 7.10, 8.6, 9.2, and 10.3 were tested in an in vitro mouse dendritic cell (DC) assay (FIG. 2). […] Supernatants were collected 48 hours after stimulation, and IL-12 and IL-10 levels measured.

[2] = tested on: bovine dendritic cells (DC); test: IL-12 induction in in vitro bovine dendritic cell (DC) assay, IL-12 ELISA; assay type: cell-based; details: 50 μg of each compound; supernatants collected 48 hours after stimulation
Protocol: Peripheral blood mononuclear cells (PBMCs) were isolated from heparinized blood of cattle by density-gradient centrifugation. Cells were adjusted to 10^7/ml in RPMI-1640 medium containing 10% heat-inactivated FCS, 10 mM HEPES, 5×10^−5 M 2-mercaptoethanol. Non-adherent cells were removed after 3 hours by washing with warm phosphate buffered saline (PBS). Adherent cells were then incubated in complete medium with 0.2 U/mI of recombinant bovine GM-CSF and 200 U/ml of recombinant bovine IL-4 (Both from Serotec, Oxford, UK), replenished daily. After 3-4 days, fresh media and cytokines were added to cells. Cells were harvested after 7-10 days of culture, washed three times and adjusted to desired cell numbers. […]
as §1
Th1 inducing activities of compounds 1.9 and 2.5 were tested in an in vitro bovine dendritic cell (DC) assay (FIG. 1). […] Supernatants were collected 48 hours after stimulation, and IL-12 levels measured.

Row | Structure (SMILES) | Induction of IL-12 on mouse dendritic cells [1] | Induction of IL-12 on bovine dendritic cells [2]
1 | CCCCCCCCCCCCCCCCO[C@H](COC(=O)CCCCCCCCCCCCCCC)COP(=O)(O)O[C@@H]1C(O[C@H]2OC(CO)[C@@H](O)[C@H](O)C2O)C(O)[C@@H](O)[C@H](O)C1O[C@H]1OC(CO)[C@@H](O)C(O)[C@H]1O (stereo partly drawn) [Compound 1.9, 2,6-(Di-O-α-D-mannopyranosyl)-1-O-(1-O-hexadecanoyl-2-O-hexadecyl-sn-glycero-3-phosphoryl)-D-myo-inositol] | the most potent inducing more IL-12 than the positive controls MPL and PAMCSK | very high levels of IL-12
2 | CCCCCCCCCCCCCCCCOC[C@H](COP(=O)(O)O[C@@H]1C(O[C@H]2OC(CO)[C@@H](O)[C@H](O)C2O)C(O)[C@@H](O)[C@H](O)C1O[C@H]1OC(CO)[C@@H](O)C(O)[C@H]1O)OC(=O)CCCCCCCCCCCCCCC (stereo partly drawn) [Compound 4.6, 2,6-(Di-O-α-D-mannopyranosyl)-1-O-(2-hexadecanoyl-1-O-hexadecyl-sn-glycero-3-phosphoryl)-D-myo-inositol] | the most potent inducing more IL-12 than the positive controls MPL and PAMCSK | 
